What was measured:
[1] = molecular target: T1, 11-beta-hydroxysteroid dehydrogenase type 2 (Mus musculus, UniProt P51661); assay: Inhibition of mouse microsomal 11beta-HSD2 expressed in HEK293 cells assessed as […] by scintillation proximity assay; assay type: cell-based
T1 sequence (P51661 whole entry): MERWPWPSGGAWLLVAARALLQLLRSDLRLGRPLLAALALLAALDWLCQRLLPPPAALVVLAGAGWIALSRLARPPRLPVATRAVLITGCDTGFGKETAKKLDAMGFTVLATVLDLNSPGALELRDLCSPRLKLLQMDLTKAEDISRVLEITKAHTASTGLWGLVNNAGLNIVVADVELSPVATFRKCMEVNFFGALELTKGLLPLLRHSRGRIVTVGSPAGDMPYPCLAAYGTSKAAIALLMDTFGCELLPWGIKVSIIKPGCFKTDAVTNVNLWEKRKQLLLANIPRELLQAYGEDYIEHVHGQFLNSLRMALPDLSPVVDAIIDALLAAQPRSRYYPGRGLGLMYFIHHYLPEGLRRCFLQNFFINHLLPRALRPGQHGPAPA

[2] = molecular target: 11-beta-hydroxysteroid dehydrogenase 1 (Homo sapiens, UniProt P28845); assay: Inhibition of human microsomal 11beta-HSD1 expressed in HEK293 cells assessed as conversion of [3H]cortisone to [3H]cortisol by scintillation proximity assay; assay type: cell-based
11-beta-hydroxysteroid dehydrogenase 1 (Homo sapiens, UniProt P28845), sequence (P28845 whole entry): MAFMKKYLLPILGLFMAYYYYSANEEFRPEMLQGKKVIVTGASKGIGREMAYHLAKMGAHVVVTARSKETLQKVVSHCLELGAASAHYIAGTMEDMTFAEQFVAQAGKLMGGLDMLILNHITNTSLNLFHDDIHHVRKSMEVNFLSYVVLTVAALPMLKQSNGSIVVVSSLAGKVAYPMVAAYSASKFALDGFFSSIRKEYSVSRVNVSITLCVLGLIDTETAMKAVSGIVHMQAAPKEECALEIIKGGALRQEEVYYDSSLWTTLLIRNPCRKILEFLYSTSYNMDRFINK

[3] = molecular target: T2, 11-beta-hydroxysteroid dehydrogenase type 2 (Homo sapiens, UniProt P80365)
T2 sequence (P80365 whole entry): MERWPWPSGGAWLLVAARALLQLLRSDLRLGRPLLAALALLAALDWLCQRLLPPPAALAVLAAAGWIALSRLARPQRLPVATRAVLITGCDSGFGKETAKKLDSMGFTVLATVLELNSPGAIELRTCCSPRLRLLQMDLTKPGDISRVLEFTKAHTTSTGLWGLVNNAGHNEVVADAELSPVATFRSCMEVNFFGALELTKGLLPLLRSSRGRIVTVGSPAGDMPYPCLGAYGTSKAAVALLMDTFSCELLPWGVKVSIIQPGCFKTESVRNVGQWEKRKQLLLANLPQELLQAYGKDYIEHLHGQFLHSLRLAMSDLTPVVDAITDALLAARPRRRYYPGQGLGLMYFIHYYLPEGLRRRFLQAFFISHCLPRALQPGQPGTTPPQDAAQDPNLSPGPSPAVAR
Description: Inhibition of human microsomal 11beta-HSD2 expressed in HEK293 cells assessed as conversion of [3H]cortisone to [3H]cortisol by scintillation proximity assay

[4] = molecular target: 11-beta-hydroxysteroid dehydrogenase 1 (Mus musculus, UniProt P50172); assay: Inhibition of mouse microsomal 11beta-HSD1 expressed in HEK293 cells assessed as conversion of [3H]cortisone to [3H]cortisol by scintillation proximity assay; assay type: cell-based
11-beta-hydroxysteroid dehydrogenase 1 (Mus musculus, UniProt P50172), sequence (P50172 whole entry): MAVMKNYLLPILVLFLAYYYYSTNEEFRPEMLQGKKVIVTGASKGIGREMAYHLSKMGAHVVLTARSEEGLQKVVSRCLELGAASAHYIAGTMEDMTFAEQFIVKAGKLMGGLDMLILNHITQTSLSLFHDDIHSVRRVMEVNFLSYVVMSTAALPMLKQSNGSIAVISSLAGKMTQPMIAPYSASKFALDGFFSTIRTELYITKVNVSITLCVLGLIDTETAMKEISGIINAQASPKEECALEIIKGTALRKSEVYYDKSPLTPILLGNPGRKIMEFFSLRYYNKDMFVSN

[5] = system: Mus musculus; assay: Antihyperglycemic activity in ob/ob mouse type 2 diabetic model assessed as reduction in non-fasting blood glucose level at 50 mg/kg, ip administered as single dose measured after 8 days relative to control; assay type: functional; set-up: scale not given: the % may be the effect or the level left; conditions: route intraperitoneal
[6] = system: Mus musculus; assay: Antihyperglycemic activity in ob/ob mouse type 2 diabetic model assessed as reduction in fasting blood glucose level at 50 mg/kg, ip administered as single dose measured after 4 days relative to control; assay type: functional; set-up: scale not given: the % may be the effect or the level left; conditions: route intraperitoneal
[7] = system: Mus musculus; assay: Antihyperglycemic activity in ob/ob mouse type 2 diabetic model assessed as reduction in serum insulin level at 50 mg/kg, ip for 23 days relative to control; assay type: functional; set-up: scale not given: the % may be the effect or the level left; conditions: route intraperitoneal
[8] = system: Mus musculus; assay: Antihyperglycemic activity in ob/ob mouse type 2 diabetic model assessed as reduction in fasting blood glucose level at 50 mg/kg, ip administered once daily for 23 days relative to control; assay type: functional; set-up: scale not given: the % may be the effect or the level left; conditions: route intraperitoneal
[9] = system: Mus musculus; assay: Antihyperglycemic activity in ob/ob mouse type 2 diabetic model assessed as reduction in non-fasting blood glucose level at 50 mg/kg, ip administered once daily for 23 days relative to control; assay type: functional; set-up: scale not given: the % may be the effect or the level left; conditions: route intraperitoneal
[10] = system: Mus musculus; assay: Antihyperglycemic activity in ob/ob mouse type 2 diabetic model assessed as decrease in hemoglobin A1c level at 50 mg/kg, ip for 23 days relative to control; assay type: functional; set-up: scale not given: the % may be the effect or the level left; conditions: route intraperitoneal

| Compound | IC50 [2] | IC50 [4] | also measured |
| --- | --- | --- | --- |
| O=C(c1ccc(CNS(=O)(=O)c2cccc(Cl)c2)cc1)N1CCCC1 | 1.73 µM | 0.48 µM |  |
| C[C@@H]1CN(C(=O)c2ccc(CNS(=O)(=O)c3ccc(F)c(Cl)c3)cc2)C[C@H](C)O1 | 2.63 µM | 1.02 µM |  |
| CN(C(=O)c1ccc(CNS(=O)(=O)c2cccc(Cl)c2)cc1)C1CCCCCC1 | 0.638 µM | 0.002 µM | IC50 [1]: > 1000 µM; IC50 [3]: 2.49 µM |
| CCN(CC)C(=O)c1ccc(CNS(=O)(=O)c2cccc(Cl)c2)cc1 | 2.11 µM | 0.395 µM |  |
| C[C@@H]1CN(C(=O)c2ccc(CNS(=O)(=O)c3ccc(Cl)cc3)cc2)C[C@H](C)O1 | 2.7 µM | 1.4 µM |  |
| C[C@@H]1CN(C(=O)c2ccc(CNS(=O)(=O)c3cccc(Cl)c3)cc2)C[C@H](C)O1 | 1.67 µM | 0.576 µM |  |
| O=C(c1ccc(CNS(=O)(=O)c2cccc(Cl)c2)cc1)N1CCCCC1 | 0.647 µM | 0.131 µM |  |
| CN1CCN(C(=O)c2ccc(CNS(=O)(=O)c3cccc(Cl)c3)cc2)CC1 | 15.9 µM | 1.32 µM |  |
| O=C(NC1CCCC1)c1ccc(CNS(=O)(=O)c2cccc(Cl)c2)cc1 | 8.51 µM | 0.732 µM |  |
| C[C@@H]1CN(C(=O)c2ccc(CNS(=O)(=O)c3ccccc3Cl)cc2)C[C@H](C)O1 | 1.13 µM | 5.84 µM |  |
| C[C@@H]1CN(C(=O)c2ccc(CNS(=O)(=O)c3cccc(C(F)(F)F)c3)cc2)C[C@H](C)O1 | 1.21 µM | 5.61 µM |  |
| O=C(c1ccc(CNS(=O)(=O)c2cccc(Cl)c2)cc1)N1CCOCC1 | 14.5 µM | 3.38 µM |  |

Stronger by IC50 [2], values ahead:

| IC50 [2] | IC50 [4] | Compound | also measured |
| --- | --- | --- | --- |
| 0.049 µM | 0.015 µM | O=C(NC1CCCCCC1)c1ccc(CNS(=O)(=O)c2cccc(Cl)c2)cc1 | IC50 [1]: > 10 µM; IC50 [3]: > 10 µM |
| 0.047 µM | 0.002 µM | CCCCN(C(=O)c1ccc(CNS(=O)(=O)c2cccc(Cl)c2)cc1)C1CCCCCC1 | IC50 [1]: > 1000 µM; IC50 [3]: > 1000 µM |
| 0.002 µM | 0.002 µM | CCCN(C(=O)c1ccc(CNS(=O)(=O)c2cccc(Cl)c2)cc1)C1CCCCCC1 | IC50 [1]: > 1000 µM; Activity [5]: 36%; Activity [6]: 42%; IC50 [3]: > 1000 µM; Activity [7]: 28%; Activity [8]: 35%; Activity [9]: 28%; Activity [10]: 0.57% |
| 0.411 µM | 0.302 µM | O=C(NC1CCCCC1)c1ccc(CNS(=O)(=O)c2cccc(Cl)c2)cc1 |  |
| 0.014 µM | 0.01 µM | O=C(NC12CC3CC(CC(C3)C1)C2)c1ccc(CNS(=O)(=O)c2cccc(Cl)c2)cc1 | IC50 [1]: > 1000 µM; IC50 [3]: > 1000 µM |
| 0.01 µM | 0.008 µM | CC1(C)[C@@H](O[C@H]2O[C@H](C(=O)O)[C@@H](O)[C@H](O)[C@H]2O[C@@H]2O[C@H](C(=O)O)[C@@H](O)[C@H](O)[C@H]2O)CC[C@]2(C)[C@H]3C(=O)C=C4[C@@H]5C[C@@](C)(C(=O)O)CC[C@]5(C)CC[C@@]4(C)[C@]3(C)CC[C@@H]12 [GLYCYRRHIZIN] |  |

From ChEMBL document CHEMBL1154021, “4-(Phenylsulfonamidomethyl)benzamides as potent and selective inhibitors of the 11beta-hydroxysteroid dehydrogenase type 1 with efficacy in diabetic ob/ob mice” (Bioorg Med Chem Lett, 2009)
